Data set [1] in a line: DRUGMATRIX: Sodium/nucleoside co-transporter radioligand binding (ligand: nitrobenzylthioinosine). It counts as cell membranes, Cavia porcellus, Dunkin-Hartley, Cerebral cortex, Membrane. The conditions noted are these: Not Active = under 50% inhibition at 10 µM.
The target of data set [2] is Beta-1 adrenergic receptor (Homo sapiens, UniProt P08588). The data set is described as follows: DRUGMATRIX: Adrenergic beta1 radioligand binding (ligand: [125I] Cyanopindolol). Format: cell membranes, CHO-K1, Membrane. The conditions noted are these: cho-k1; Not Active = under 50% inhibition at 10 µM.
The target in data set [3] is Sodium-dependent noradrenaline transporter (Homo sapiens, UniProt P23975). Description: DRUGMATRIX: Norepinephrine Transporter radioligand binding (ligand: [125I] RTI-55). Format: cell membranes, MDCK, Membrane. The conditions noted are these: mdck; Not Active = under 50% inhibition at 10 µM.
For the next data set, the target named is Cytochrome P450 2C19 (Homo sapiens, UniProt P33261). The conditions noted are these: bti-tn-5b1-4. Further: in other assays of this panel Not Active means under 50% inhibition at 10 µM.
Data set [4] can be described thus: DRUGMATRIX: GABAA, Flunitrazepam, Central radioligand binding (ligand: [3H] Flunitrazepam). The conditions noted are these: Not Active = under 50% inhibition at 10 µM. It counts as cell membranes, Rattus norvegicus, Wistar, Brain, Membrane.
A short description of data set [5]: DRUGMATRIX: Atrial Natriuretic Factor (ANF) radioligand binding (ligand: [125I] ANF (rat)). The conditions noted are these: Not Active = under 50% inhibition at 10 µM. It counts as cell membranes, Cavia porcellus, Dunkin-Hartley, Adrenal gland, Membrane.
The target of a further data set is T1, Glucocorticoid receptor (Homo sapiens, UniProt P04150). Further: in other assays of this panel Not Active means under 50% inhibition at 10 µM.
T1 sequence (P04150 whole entry): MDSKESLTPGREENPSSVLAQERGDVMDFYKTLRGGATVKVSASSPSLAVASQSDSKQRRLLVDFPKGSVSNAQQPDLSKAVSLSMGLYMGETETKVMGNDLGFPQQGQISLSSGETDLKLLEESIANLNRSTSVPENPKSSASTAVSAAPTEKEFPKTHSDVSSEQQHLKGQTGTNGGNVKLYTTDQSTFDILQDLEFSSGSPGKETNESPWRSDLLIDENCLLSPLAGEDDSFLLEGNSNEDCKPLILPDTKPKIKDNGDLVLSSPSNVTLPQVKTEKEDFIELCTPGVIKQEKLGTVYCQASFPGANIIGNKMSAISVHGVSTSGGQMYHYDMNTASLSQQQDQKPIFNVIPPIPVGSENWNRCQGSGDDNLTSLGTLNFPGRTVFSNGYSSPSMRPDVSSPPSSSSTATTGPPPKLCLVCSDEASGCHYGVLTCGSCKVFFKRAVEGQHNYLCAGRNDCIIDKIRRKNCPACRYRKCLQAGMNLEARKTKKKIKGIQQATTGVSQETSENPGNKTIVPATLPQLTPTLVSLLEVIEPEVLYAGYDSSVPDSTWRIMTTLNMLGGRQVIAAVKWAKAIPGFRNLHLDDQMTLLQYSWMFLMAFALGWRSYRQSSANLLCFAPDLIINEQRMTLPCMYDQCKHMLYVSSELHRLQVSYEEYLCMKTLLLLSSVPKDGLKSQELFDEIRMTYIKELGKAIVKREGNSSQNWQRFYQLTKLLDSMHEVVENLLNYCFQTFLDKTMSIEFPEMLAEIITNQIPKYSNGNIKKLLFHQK
The conditions noted are these: hela s3.

The nature of data set [6]: DRUGMATRIX: Platelet-Derived Growth Factor (PDGF) radioligand binding (ligand: [125I] PDGF). The conditions noted are these: nih3t3; Not Active = under 50% inhibition at 10 µM. It counts as cell-based.

By IC50 is commonly meant the midpoint of a concentration-inhibition curve. What is called Ki is the dissociation constant of the complex between target and ligand, obtained from inhibition or displacement.

Cytochrome P450 2C19, sequence (P33261 whole entry): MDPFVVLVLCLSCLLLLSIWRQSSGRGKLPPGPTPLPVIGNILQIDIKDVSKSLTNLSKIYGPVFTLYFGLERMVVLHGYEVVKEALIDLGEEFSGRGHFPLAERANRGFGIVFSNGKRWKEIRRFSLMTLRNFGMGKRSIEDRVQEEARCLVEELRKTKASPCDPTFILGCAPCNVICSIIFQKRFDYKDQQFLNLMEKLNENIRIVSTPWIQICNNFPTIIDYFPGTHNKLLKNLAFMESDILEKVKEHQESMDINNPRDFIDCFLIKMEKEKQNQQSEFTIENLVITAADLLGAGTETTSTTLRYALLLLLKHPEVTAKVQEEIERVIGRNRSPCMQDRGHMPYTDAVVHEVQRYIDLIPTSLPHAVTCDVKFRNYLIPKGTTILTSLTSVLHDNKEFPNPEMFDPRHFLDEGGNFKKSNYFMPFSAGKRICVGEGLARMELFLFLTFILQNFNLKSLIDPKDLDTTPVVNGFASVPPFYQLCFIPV
Sodium-dependent noradrenaline transporter, sequence (P23975 whole entry): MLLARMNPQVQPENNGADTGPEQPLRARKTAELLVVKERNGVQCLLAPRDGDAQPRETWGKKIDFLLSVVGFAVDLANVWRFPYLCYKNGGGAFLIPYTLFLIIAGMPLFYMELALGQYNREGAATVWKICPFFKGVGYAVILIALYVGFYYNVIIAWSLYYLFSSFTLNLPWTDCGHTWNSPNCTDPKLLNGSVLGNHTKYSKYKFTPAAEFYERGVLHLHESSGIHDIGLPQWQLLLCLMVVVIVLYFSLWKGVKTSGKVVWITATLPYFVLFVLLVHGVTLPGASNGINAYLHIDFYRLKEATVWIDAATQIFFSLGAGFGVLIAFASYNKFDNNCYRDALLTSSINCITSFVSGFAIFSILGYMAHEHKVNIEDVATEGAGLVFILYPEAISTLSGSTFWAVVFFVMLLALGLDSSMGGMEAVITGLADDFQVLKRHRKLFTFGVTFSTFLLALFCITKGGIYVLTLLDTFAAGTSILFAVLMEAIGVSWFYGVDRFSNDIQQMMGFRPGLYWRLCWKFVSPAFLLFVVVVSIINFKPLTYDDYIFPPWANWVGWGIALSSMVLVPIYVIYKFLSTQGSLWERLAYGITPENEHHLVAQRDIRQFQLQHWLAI
Beta-1 adrenergic receptor, sequence (P08588 whole entry): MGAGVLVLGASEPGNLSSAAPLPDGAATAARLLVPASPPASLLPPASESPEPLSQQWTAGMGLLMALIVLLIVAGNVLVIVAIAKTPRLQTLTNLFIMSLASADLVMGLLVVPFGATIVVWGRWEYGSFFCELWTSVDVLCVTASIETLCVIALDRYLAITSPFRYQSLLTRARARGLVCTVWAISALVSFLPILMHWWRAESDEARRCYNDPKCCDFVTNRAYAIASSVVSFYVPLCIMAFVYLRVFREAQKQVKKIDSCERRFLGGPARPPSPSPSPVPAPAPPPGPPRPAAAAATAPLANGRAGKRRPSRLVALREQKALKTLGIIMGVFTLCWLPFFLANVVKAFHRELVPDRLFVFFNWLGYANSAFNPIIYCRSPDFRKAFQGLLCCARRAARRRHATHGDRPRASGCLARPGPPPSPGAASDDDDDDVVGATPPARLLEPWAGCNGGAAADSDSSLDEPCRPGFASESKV

As to `CCCCC(=O)N(Cc1ccc(-c2ccccc2-c2nnn[nH]2)cc1)[C@H](C(=O)O)C(C)C`, the half-maximal inhibitory concentration (IC50) entry (in data set [1]; in data set [2]; in data set [3]; on Cytochrome P450 2C19; in data set [4]; in data set [5]) was “Not Active” throughout. Also, the half-maximal inhibitory concentration (IC50) entry (at Glucocorticoid receptor; in data set [6]) was “Not Active” in each case. Further, the Ki result (in data set [1]; on Cytochrome P450 2C19; in data set [4]; in data set [5]; in data set [6]) was “Not Active” throughout.

Take `CN1[C@@H]2CC[C@H]1C[C@@H](OC(c1ccccc1)c1ccccc1)C2` [BENZTROPINE]: the half-maximal inhibitory concentration (IC50) result at Cytochrome P450 2C19 and on Glucocorticoid receptor was “Not Active” throughout. Further, the inhibition constant Ki result at Cytochrome P450 2C19 is listed as “Not Active”.

Regarding `C[C@@](Cc1ccc(O)c(O)c1)(NN)C(=O)O.O` [CARBIDOPA], the IC50 result (in data set [1]; in data set [2]; in data set [3]; against Cytochrome P450 2C19; in data set [4]; in data set [5]) was “Not Active” throughout. The half-maximal inhibitory concentration (IC50) result in data set [6] is on record as “Not Active”. Moreover, the inhibitory constant (Ki) result (in data set [1]; at Cytochrome P450 2C19; in data set [4]; in data set [5]; in data set [6]) was “Not Active” in each case.

Turning to `CN1CCN(C2=Nc3cc(Cl)ccc3Nc3ccccc32)CC1` [CLOZAPINE], the IC50 entry (in data set [2]; against Cytochrome P450 2C19; against Glucocorticoid receptor) was “Not Active” in each case. Further, the inhibition constant Ki entry on Cytochrome P450 2C19 is “Not Active”.

Take `CC(C)NC[C@@H](O)COc1cccc2ccccc12` [DEXPROPRANOLOL]: on Cytochrome P450 2C19, the concentration for half-maximal inhibition (IC50) result is “Not Active” and the Ki result was “Not Active”.

Turning to `CC(C)NC[C@H](O)COc1cccc2ccccc12` [LEVOPROPRANOLOL], on Cytochrome P450 2C19, the IC50 entry is “Not Active” and the Ki result is reported as “Not Active”.

As for `CN(C)C(=O)C(CCN1CCC(O)(c2ccc(Cl)cc2)CC1)(c1ccccc1)c1ccccc1` [LOPERAMIDE], the IC50 entry at Cytochrome P450 2C19 and against Glucocorticoid receptor was “Not Active” in each case. The Ki entry on Cytochrome P450 2C19 was “Not Active”.

With `Clc1ccc(COC(Cn2ccnc2)c2ccc(Cl)cc2Cl)c(Cl)c1` (configuration not stated) [MICONAZOLE], the IC50 entry at Glucocorticoid receptor is “Not Active”.

Regarding `Oc1ccc2c3c1O[C@H]1[C@@H](O)CC[C@@]4(O)[C@@H](C2)N(CC2CCC2)CC[C@]314` [NALBUPHINE], the 50% inhibitory concentration (IC50) entry (in data set [2]; in data set [3]; at Glucocorticoid receptor) was “Not Active” in each case.

As to `C[C@]12C=CC(=O)C=C1CC[C@@H]1[C@@H]2C(=O)C[C@@]2(C)[C@H]1CC[C@]2(O)C(=O)CO` [PREDNISONE], the IC50 in data set [1] (read-out: IC50) was 4.95 µM; in data set [2], “Not Active”; in data set [3] it was “Not Active”; in data set [4], “Not Active”; in data set [5] it was “Not Active”; in data set [6] it was “Not Active”. The Ki in data set [1] (read-out: Ki) was 1.69 µM; in data set [4], “Not Active”; in data set [5], “Not Active”; in data set [6] it was “Not Active”.

In the case of `OCCOCCN1CCN(C2=Nc3ccccc3Sc3ccccc32)CC1` [QUETIAPINE], the IC50 entry (in data set [2]; in data set [3]; against Cytochrome P450 2C19) was “Not Active” throughout. Moreover, the Ki result on Cytochrome P450 2C19 is “Not Active”.

Consider `O=C(O)c1ccccc1O` [SALICYLIC ACID], for which the half-maximal inhibitory concentration (IC50) result (in data set [1]; in data set [3]; on Cytochrome P450 2C19; in data set [4]; in data set [5]; in data set [6]) was “Not Active” each time. Further, the inhibition constant Ki entry (in data set [1]; at Cytochrome P450 2C19; in data set [4]; in data set [5]; in data set [6]) was “Not Active” throughout.

For the molecule `C[S+]([O-])c1ccc(-c2nc(-c3ccncc3)c(-c3ccc(F)cc3)[nH]2)cc1` (configuration not stated) [SB-203580], the IC50 entry (in data set [2]; in data set [3]; on Glucocorticoid receptor) was “Not Active” each time.

`O=C1C[C@@H]2OCC=C3CN4CC[C@]56c7ccccc7N1[C@H]5[C@H]2[C@H]3C[C@H]46` [STRYCHNINE]: the IC50 result (in data set [1]; in data set [3]; at Cytochrome P450 2C19; in data set [4]; in data set [5]; in data set [6]) was “Not Active” throughout. Moreover, the inhibitory constant (Ki) result (in data set [1]; at Cytochrome P450 2C19; in data set [4]; in data set [5]; in data set [6]) was “Not Active” each time.

As for `C[N+](C)(C)CCOC(=O)CCC(=O)OCC[N+](C)(C)C.[Cl-].[Cl-]` [SUCCINYLCHOLINE CHLORIDE], the IC50 result (in data set [1]; in data set [2]; in data set [3]; in data set [4]; in data set [5]; against Glucocorticoid receptor) was “Not Active” each time. Further, the IC50 entry in data set [6] is reported as “Not Active”. Moreover, the Ki entry in data set [1], in data set [4], in data set [5] and in data set [6] was “Not Active” throughout.

Turning to `CCCCCCCCNC(C)C(O)c1ccc(SC(C)C)cc1` (configuration not stated) [SULOCTIDIL], the half-maximal inhibitory concentration (IC50) entry (in data set [1]; on Cytochrome P450 2C19; in data set [4]; against Glucocorticoid receptor) was “Not Active” in each case. In addition, the inhibitory constant (Ki) entry (in data set [1]; at Cytochrome P450 2C19; in data set [4]) was “Not Active” each time.

Regarding `O=c1[nH]c(=O)n(C2CCCO2)cc1F` (configuration not stated) [TEGAFUR], the IC50 result (in data set [1]; in data set [2]; in data set [3]; against Cytochrome P450 2C19; in data set [4]; in data set [5]) was “Not Active” each time. Also, in data set [6], the 50% inhibitory concentration (IC50) result is listed as “Not Active”. In addition, the Ki result (in data set [1]; at Cytochrome P450 2C19; in data set [4]; in data set [5]; in data set [6]) was “Not Active” throughout.

In the case of `CC(=N)S` [THIOACETAMIDE], the half-inhibitory concentration (IC50) entry (in data set [1]; in data set [2]; in data set [3]; against Cytochrome P450 2C19; in data set [4]; in data set [5]) was “Not Active” throughout. In addition, the IC50 result in data set [6] was “Not Active”. Besides, the Ki entry (in data set [1]; at Cytochrome P450 2C19; in data set [4]; in data set [5]; in data set [6]) was “Not Active” throughout.

With `Cc1ccc(C(=O)c2ccc(CC(=O)O)n2C)cc1` [TOLMETIN], the IC50 entry (in data set [1]; in data set [2]; in data set [3]; at Cytochrome P450 2C19; in data set [4]; in data set [5]) was “Not Active” each time. Further, the IC50 result in data set [6] is “Not Active”. Further, the inhibition constant (Ki) entry (in data set [1]; on Cytochrome P450 2C19; in data set [4]; in data set [5]; in data set [6]) was “Not Active” throughout.

Turning to `CN1CCN(CCCN2c3ccccc3Sc3ccc(C(F)(F)F)cc32)CC1` [TRIFLUOPERAZINE], the IC50 result (in data set [1]; in data set [2]; in data set [3]; in data set [4]; in data set [5]; on Glucocorticoid receptor) was “Not Active” throughout. The IC50 entry in data set [6] was “Not Active”. Besides, the Ki result in data set [1], in data set [4], in data set [5] and in data set [6] was “Not Active” in each case.

These data come from ChEMBL document CHEMBL1909046, “DrugMatrix in vitro pharmacology data”.
